# Results from US20050113319A1, “11-Deoxy-6,9-ether erythromycin compounds” (priority 2003, published 2005).
# Like-named read-outs stand apart in the source and are kept apart here.
# Legend:
# [1] = target: T1, motilin receptor (Homo sapiens, UniProt O43193); test: Motilin agonist activity (activation of the motilin receptor); format: cell-based
# Description: Compounds of this invention were tested for motilin agonist activity, following the procedure of Carreras et al., Anal. Biochem., 300, 146-151 (2002), the disclosure of which is incorporated herein by reference.
# [2] = target: T1, motilin receptor; test: Motilin receptor desensitization, cell-based assay; conditions: for Activity retained following exposure, 1 μM Compound: motilin receptor activity retained after exposure to 1 μM test compound; for Activity retained following exposure, 10 μM Compound: motilin receptor activity retained after exposure to 10 μM test compound
# Description: Compounds were tested for motilin receptor desensitization using the cell-based assay described in Carreras et al., U.S. 2002/0192709 A1 (2002), “Methods for Evaluating Therapeutic Efficacy,” incorporated herein by reference. Briefly, the test measures the extent of motilin receptor activity retained after exposure to varying amounts (1 and 10 μM) of test compound.
# [3] = system: Streptococcus pneumoniae ATCC 6301; test: In vitro antibacterial activity; format: cell-based; conditions: ATCC6301
# Description: Compounds of this invention were tested for in vitro activity against Streptococcus pneumoniae ATCC 6301, an erythromycin-sensitive strain, using methods known in the microbiological art.
# T1 sequence (O43193 whole entry): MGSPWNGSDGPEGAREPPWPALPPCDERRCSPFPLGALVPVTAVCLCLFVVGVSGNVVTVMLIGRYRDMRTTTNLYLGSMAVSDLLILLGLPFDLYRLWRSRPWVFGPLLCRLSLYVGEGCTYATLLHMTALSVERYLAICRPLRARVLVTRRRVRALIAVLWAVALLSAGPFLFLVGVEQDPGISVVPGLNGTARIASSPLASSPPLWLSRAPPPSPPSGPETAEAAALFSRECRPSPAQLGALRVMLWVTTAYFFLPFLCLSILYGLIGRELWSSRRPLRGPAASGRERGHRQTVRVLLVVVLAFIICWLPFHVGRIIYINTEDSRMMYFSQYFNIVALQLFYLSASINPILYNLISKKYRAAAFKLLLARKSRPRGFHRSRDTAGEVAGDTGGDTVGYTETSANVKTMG
Compound,EC50 [1] [nM],"Activity retained following exposure, 1 μM Compound [2]","Activity retained following exposure, 10 μM Compound [2]",MIC ([3]; Streptococcus pneumoniae) [µg/mL],"MIC ([3]; Streptococcus pneumoniae ATCC 6301, erythromycin-sensitive strain, read-out: MIC) [µg/mL]"
CC[C@H]1OC(=O)[C@H](C)[C@@H](O[C@H]2C[C@@](C)(OC)C[C@H](C)O2)[C@H](C)[C@@H](O[C@@H]2O[C@H](C)C[C@H](N(C)C)[C@H]2O)[C@@]2(C)C[C@@H](C)[C@H](O2)[C@H](C)C[C@H]1C [Compound IVa],42,24 % of original,7 % of original,25,–
CC[C@H]1OC(=O)[C@H](C)[C@@H](O[C@H]2C[C@@](C)(OC)C[C@H](C)O2)[C@H](C)[C@@H](O[C@@H]2O[C@H](C)C[C@H](N(C)C(C)C)[C@H]2O)[C@@]2(C)C[C@@H](C)[C@H](O2)[C@H](C)C[C@H]1C [Compound IVc],13,9 % of original,5 % of original,50,–
CC[C@H]1OC(=O)[C@H](C)[C@@H](O[C@H]2C[C@@](C)(OC)C[C@H](C)O2)[C@H](C)[C@@H](O[C@@H]2O[C@H](C)C[C@H](N(C)CCF)[C@H]2O)[C@@]2(C)C[C@@H](C)[C@H](O2)[C@H](C)C[C@H]1C [Compound IVd],45,7 % of original,5 % of original,–,> 100
CC[C@H]1OC(=O)[C@H](C)[C@@H](O[C@H]2C[C@@](C)(OC)[C@@H](O)[C@H](C)O2)[C@H](C)[C@@H](O[C@@H]2O[C@H](C)C[C@H](N(C)C)[C@H]2O)[C@@]2(C)C[C@@H](C)[C@H](O2)[C@H](C)C[C@H]1C [Compound IVb],230,57 % of original,49 % of original,100,–
